Assays:
[1] = biological target: EGFR L858R/T790M/C797S protein (Homo sapiens (Human), UniProt P00533, C797S/L858R/T790M); experiment: MS intact labeling assay; assay type: binding; conditions: 10-fold molar excess of compound, 2 h at 30° C., LC-MS
Method: (§1) EGFR L858R/T790M protein (10 μg) or EGFR L858R/T790M/C797S protein was treated with DMSO or a 10-fold molar excess of compound 001 for 2 h at 30° C. and analyzed by LC-MS using an HPLC (Shimadzu, Marlborough, MA) interfaced to an LTQ ion trap mass spectrometer (ThermoFisher Scientific, San Jose, CA). Protein (5 μg) was injected onto a reversed phase column (5 cm POROS 50R2, Applied Biosystems, Foster City, CA), desalted for 4 min (100% A), and gradient eluted (0-100% B in 1 min; A=0.2 M acetic acid in water; B=0.2 M acetic acid in acetonitrile) into the mass spectrometer (spray voltage=4.8 kV). The mass spectrometer was programmed to acquire profile mass spectra (m/z 300-2000). Raw data was deconvoluted using MagTran version 1.03b2.38.

EGFR L858R/T790M [2] = biological target: T1, EGFR L858R/T790M (Homo sapiens (Human), UniProt P00533, L858R/T790M); experiment: MS intact labeling assay; assay type: binding; conditions: 10-fold molar excess of compound, 2 h at 30° C., LC-MS
Method: as §1

EGFR L858R = EGFR L858R (Homo sapiens (Human), UniProt P00533, L858R); experiment: HTRF-based EGFR biochemical assay; conditions: 100 μM ATP, 30 min preincubation, enzyme 0.1 nM
Method: (§2) EGFR biochemical activity measurements were carried out using the homogeneous time-resolved fluorescence (HTRF) assay (Cisbio). Inhibitors and DMSO normalizations were first dispensed to empty black low-volume 384-well plates (Corning) with D300 digital liquid dispenser (HP). All reactions were carried out at room temperature and solutions were added to plates with a Multidrop Combi Reagent Dispenser (ThermoFisher). The reaction mixture (10 μL final volume) contained 1 μM tyrosine kinase peptide-biotin substrate and mutant EGFR in a reaction buffer (50 mM HEPES pH 7.0, 5 mM MgCl2, 1 mM MnCl2, 0.01% BSA, 2 mM TCEP, 0.1 mM NaVO4). Enzyme concentrations were adjusted to accommodate varying kinase activities (L858R^0.1 nM, L858R/T790M 0.02 nM). Enzyme reaction solution (2× concentrations, 5 μL) was added to 384-well plates containing compounds and incubated for 30 mins. Enzyme reactions were initiated with the addition of 5 μL of ATP to a final concentration of 100 μM and reacted for 20 mins. Reactions were quenched with the addition of 10 μL of phospho-tyrosine antibody-Europium(III) cryptate (1-to-180 volume ratio) and Streptavidin-XL665 (46.7 nM) in EDTA-containing detection buffer, then incubated at room temperature for 1 hour, and read with a PHERAstar plate reader (excitation=337 nm, emission=620 nm and 665 nm). IC50 values were determined by inhibition curves (11-point curves from 1.0 μM to 0.130 nM or 23-point curves from 1.0 μM to […]) in triplicate with non-linear least squares fit in GraphPad Prism 7.0d.

EGFR L858R/T790M [3] = biological target: T1, EGFR L858R/T790M; experiment: HTRF-based EGFR biochemical assay; conditions: 100 μM ATP, 30 min preincubation, enzyme 0.02 nM
Method: as §2

BaF3 EGFR L858R/C797S = experiment: Ba/F3 cell proliferation (Cell Titer Glo); assay type: cell-based, murine; conditions: Mus musculus, 72 hours exposure
Text: (§3) The EGFR mutant L858R Ba/F3 cells have been previously described (Zhou, W., et al. Nature 462, 2009, 1070-1074). The EGFR C797S and C775S mutations were introduced via site directed mutagenesis using the Quick Change Site-Directed Mutagenesis kit into a vector containing EGFR L858R mutation (Stratagene; La Jolla, CA) according to the manufacturers instructions. All constructs were confirmed by DNA sequencing. The constructs were then shuttled into the retroviral vector JP1540 by either using the Cre-recombination system (Agilent Technologies, Santa Clara, CA) or the In-fusion HD Cloning kit (TakaR^a Bio USA, Inc.; Mountain view, CA). Ba/F3 cells were then infected with retrovirus per standard protocols, as described previously (Zhou, et al, Nature 2009). Stable clones were obtained by selection in puromycin (2 μg/ml). All BaF/3 mutant cells were maintained in RPMI 1640 (Cellgro; Mediatech Inc., Herndon, CA) supplemented with 10% FBS, 100 units/mL penicillin, 100 units/mL streptomycin.
(§4) Growth and inhibition of growth was assessed by the Cell Titer Glo assay (Promega, Madison, WI) and was performed according to the manufacturer's instructions. The Cell Titer Glo assay is a luminescence-based method used to determine the number of viable cells based on quantitation of the ATP present, which is directly proportional to the amount of metabolically active cells present. Ba/F3 cells of different EGFR genotypes were exposed to compounds for 72 hours and the number of cells used per experiment was determined empirically as has been previously established (Zhou, et al., Nature 2009). All experimental points were set up in triplicates in 384-well plates. […] The curves were fitted using a non-linear regression model with a sigmoidal dose response.

BaF3 EGFR L858R = experiment: Ba/F3 cell proliferation (Cell Titer Glo); assay type: cell-based, murine; conditions: Mus musculus, 72 hours exposure
Text: as §3, §4

[4] = system: NSCLC that have developed resistance to gefitinib or erlotinib; conditions: patients with NSCLC resistant to gefitinib or erlotinib; cited from earlier work

T1 sequence (P00533 25-1210 T790M/L858R): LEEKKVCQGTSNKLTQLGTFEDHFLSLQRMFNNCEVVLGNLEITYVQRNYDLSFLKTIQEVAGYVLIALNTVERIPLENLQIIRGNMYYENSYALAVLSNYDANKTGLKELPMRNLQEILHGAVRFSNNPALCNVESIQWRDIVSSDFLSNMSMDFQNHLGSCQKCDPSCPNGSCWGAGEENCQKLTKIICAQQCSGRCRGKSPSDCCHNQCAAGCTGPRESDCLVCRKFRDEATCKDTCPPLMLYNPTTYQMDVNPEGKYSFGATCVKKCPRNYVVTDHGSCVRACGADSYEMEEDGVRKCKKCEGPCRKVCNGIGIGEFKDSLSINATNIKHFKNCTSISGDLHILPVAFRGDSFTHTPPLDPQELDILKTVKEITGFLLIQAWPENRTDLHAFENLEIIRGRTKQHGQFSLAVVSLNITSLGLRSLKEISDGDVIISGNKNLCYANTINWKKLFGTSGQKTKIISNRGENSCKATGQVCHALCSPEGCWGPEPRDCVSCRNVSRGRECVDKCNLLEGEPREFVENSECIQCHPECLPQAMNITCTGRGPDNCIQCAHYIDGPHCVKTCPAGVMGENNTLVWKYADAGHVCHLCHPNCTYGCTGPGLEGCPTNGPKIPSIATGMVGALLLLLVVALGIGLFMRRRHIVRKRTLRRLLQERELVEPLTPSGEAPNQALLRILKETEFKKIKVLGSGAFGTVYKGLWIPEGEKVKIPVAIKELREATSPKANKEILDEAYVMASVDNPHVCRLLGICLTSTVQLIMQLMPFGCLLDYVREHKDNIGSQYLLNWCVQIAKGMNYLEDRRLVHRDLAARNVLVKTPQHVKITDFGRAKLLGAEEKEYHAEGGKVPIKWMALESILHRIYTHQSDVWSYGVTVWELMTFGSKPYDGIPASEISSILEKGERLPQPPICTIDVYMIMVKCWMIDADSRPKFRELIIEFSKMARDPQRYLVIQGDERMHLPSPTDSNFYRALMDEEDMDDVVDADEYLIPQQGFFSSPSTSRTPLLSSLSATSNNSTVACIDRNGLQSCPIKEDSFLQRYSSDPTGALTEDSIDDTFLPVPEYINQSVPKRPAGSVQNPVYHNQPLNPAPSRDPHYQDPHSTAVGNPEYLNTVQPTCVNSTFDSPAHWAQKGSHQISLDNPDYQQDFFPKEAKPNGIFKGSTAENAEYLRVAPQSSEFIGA
Chain of EGFR L858R (P00533 25-1210 L858R): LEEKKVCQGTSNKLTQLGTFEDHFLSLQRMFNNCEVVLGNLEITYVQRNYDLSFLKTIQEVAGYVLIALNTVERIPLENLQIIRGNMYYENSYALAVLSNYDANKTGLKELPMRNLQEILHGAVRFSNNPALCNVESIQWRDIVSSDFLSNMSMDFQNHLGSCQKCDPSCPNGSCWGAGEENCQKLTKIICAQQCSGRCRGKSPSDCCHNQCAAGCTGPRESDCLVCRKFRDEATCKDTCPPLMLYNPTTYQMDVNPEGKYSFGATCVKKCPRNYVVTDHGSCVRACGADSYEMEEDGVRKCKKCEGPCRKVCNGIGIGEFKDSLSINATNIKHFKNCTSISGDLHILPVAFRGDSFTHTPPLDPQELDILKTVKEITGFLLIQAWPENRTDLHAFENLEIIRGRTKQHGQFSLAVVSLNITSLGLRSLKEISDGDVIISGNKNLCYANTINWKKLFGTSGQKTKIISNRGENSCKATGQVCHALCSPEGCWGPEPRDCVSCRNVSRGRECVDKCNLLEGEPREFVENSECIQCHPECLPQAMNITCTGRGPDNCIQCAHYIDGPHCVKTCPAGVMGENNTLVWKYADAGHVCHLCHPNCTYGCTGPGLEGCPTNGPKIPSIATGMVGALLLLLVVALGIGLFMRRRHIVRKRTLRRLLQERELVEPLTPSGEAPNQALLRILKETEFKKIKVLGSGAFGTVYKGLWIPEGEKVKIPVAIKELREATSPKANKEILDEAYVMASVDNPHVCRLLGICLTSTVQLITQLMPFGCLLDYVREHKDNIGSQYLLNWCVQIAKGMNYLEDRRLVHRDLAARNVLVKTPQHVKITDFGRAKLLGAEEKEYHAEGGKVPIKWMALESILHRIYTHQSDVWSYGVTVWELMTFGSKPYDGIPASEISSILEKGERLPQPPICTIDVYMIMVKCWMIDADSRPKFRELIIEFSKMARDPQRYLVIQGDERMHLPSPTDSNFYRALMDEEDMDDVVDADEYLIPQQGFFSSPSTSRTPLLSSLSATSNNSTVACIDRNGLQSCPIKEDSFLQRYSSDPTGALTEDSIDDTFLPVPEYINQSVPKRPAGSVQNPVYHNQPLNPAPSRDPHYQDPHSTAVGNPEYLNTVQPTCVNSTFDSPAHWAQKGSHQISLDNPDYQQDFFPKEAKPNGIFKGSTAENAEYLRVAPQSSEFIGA
Chain of EGFR L858R/T790M/C797S protein (P00533 25-1210 T790M/C797S/L858R): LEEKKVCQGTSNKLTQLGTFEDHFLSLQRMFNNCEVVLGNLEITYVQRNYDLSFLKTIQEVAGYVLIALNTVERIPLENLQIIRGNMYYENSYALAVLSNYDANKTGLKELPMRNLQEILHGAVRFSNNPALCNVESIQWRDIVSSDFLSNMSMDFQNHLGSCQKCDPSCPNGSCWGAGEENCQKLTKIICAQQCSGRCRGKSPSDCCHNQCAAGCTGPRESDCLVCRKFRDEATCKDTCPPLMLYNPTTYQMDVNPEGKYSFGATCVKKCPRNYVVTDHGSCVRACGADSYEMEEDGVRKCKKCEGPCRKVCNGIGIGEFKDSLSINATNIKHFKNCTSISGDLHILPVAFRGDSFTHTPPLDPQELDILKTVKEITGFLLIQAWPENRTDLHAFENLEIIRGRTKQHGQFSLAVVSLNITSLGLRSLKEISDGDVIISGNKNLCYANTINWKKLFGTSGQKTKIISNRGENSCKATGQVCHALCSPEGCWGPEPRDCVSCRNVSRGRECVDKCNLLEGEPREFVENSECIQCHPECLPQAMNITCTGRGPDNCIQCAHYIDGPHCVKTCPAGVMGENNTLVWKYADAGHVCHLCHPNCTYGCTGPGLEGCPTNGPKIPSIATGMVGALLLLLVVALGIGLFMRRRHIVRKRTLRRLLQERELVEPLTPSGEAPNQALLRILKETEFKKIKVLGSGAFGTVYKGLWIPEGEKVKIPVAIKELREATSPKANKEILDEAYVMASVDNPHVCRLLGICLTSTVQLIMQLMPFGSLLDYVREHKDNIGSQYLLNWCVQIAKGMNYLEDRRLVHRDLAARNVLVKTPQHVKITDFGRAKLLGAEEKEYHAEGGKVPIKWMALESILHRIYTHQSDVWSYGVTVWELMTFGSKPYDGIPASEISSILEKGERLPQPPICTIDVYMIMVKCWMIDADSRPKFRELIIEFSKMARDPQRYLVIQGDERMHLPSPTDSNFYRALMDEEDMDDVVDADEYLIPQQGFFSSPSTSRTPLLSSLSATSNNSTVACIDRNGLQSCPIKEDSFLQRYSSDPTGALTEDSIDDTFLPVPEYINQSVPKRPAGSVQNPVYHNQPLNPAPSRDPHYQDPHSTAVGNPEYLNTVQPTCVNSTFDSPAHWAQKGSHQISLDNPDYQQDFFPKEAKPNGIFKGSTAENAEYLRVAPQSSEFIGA

| Percent Labeling [1] [%] | Percent Labeling (EGFR L858R/T790M [2]) [%] | IC50 (EGFR L858R) [µM] | IC50 (EGFR L858R/T790M [3]) [µM] | IC50 (BaF3 EGFR L858R/C797S) [µM] | IC50 (BaF3 EGFR L858R) [µM] | Compound | RR (response rate) [4] |
| --- | --- | --- | --- | --- | --- | --- | --- |
| 80 | 80 | > 0.1 | > 0.1 | 1.46 | 2.9 | C=CC(=O)Nc1cc2cc(c1)-c1cnn(C)c1OCCC[C@@H](C)Cn1c(nc3ccc(Br)cc31)NC2=O [Compound 001] |  |
|  |  |  |  |  |  | CN(C)C/C=C/C(=O)Nc1cc2c(Nc3ccc(F)c(Cl)c3)ncnc2cc1O[C@H]1CCOC1 [afatinib] | less than 10% |
|  |  | > 0.1 | > 0.1 | 3.58 | 4.42 | C=CC(=O)Nc1cc2sc1-c1cnn(C)c1OCCC[C@@H](C)Cn1c(nc3ccc(Br)cc31)NC2=O [Compound 002] |  |
|  |  |  |  | 4.03 | 4.43 | C=CC(=O)Nc1cc2sc1-c1cnccc1OCCC[C@@H](C)Cn1c(nc3ccc(Br)cc31)NC2=O [Compound 003] |  |

Source: patent US20240166665A1, “COVALENT EGFR INHIBITORS AND METHODS OF USE THEREOF” (Dana-Farber Cancer Institute, Inc., priority 2021, published 2024)
